Drawing on PubChem BioAssay (NCI), this text covers TGI and GI50 for 15 compounds.

Some test systems named below: HCC-2998 colon; MALME-3M melanoma; OVCAR-4 ovarian; 786-0 renal; HL-60(TB) leukemia; HCT-15 colon; NCI-H226 lung; U251 CNS; RPMI-8226 leukemia; HOP-62 NSCLC.
Experiment in all cases: inhibition of tumour cell growth, NCI panel, 48 h

Where “and” joins values, the source holds several entries; their conditions need not be identical. Equal values may be shown once.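 Exposure lasted 48 hours, with cells grown in 96-well plates and compounds tested at five concentrations. Abbreviation: GI50, concentration required for 50% inhibition of growth. TGI: total growth inhibition.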 Bounds are passed on as bounds.

For the compound `NC1=N/C(=C2/CCNC(=O)c3[nH]c(Br)cc32)C(=O)N1`, the TGI was greater than 100 µM in the test on HCC-2998 colon; greater than 100 µM in the test on MALME-3M melanoma; 46.4 µM and 40.5 µM with OVCAR-4 ovarian; greater than 61.4 µM in the test on 786-0 renal; 11.2 µM and 6.94 µM in the test with HL-60(TB) leukemia; greater than 100 µM with HCT-15 colon. Moreover, the TGI in the test with NCI-H226 lung, in the test with U251 CNS, with RPMI-8226 leukemia and with HOP-62 NSCLC was greater than 100 µM throughout. The GI50 is 8.82 µM and 25.1 µM in the test on MALME-3M melanoma; > 64 µM and 21.8 µM in the test on NCI-H226 lung; > 79.9 µM and 15.6 µM with RPMI-8226 leukemia.

As for `COc1ccc([N+](=O)[O-])c(S(=O)(=O)c2ccc(Cl)cc2)n1`, the GI50 was 8.38 µM in the test with HCC-2998 colon; 2 µM with MALME-3M melanoma; 2.32 µM in the test with OVCAR-4 ovarian; 2.51 µM in the test on 786-0 renal; 6.8 µM in the test with HL-60(TB) leukemia; 2.05 µM in the test on HCT-15 colon. For the same compound, the GI50 is 10.2 µM with NCI-H226 lung, 8.69 µM with U251 CNS, 3.38 µM in the test with RPMI-8226 leukemia and 16.6 µM with HOP-62 NSCLC. Also, the TGI in the test on HCC-2998 colon is 23.8 µM; in the test with MALME-3M melanoma, 4.08 µM; in the test on OVCAR-4 ovarian, 6.51 µM; with 786-0 renal, 7.18 µM; with HL-60(TB) leukemia, 41 µM; in the test with HCT-15 colon, 5.22 µM. The TGI in the test with NCI-H226 lung worked out at 36 µM; with U251 CNS it was 21.6 µM; with RPMI-8226 leukemia, 51.9 µM; with HOP-62 NSCLC it was 30.5 µM.

For `CCOC(=O)c1sc(Nc2ccc(Cl)cc2)nc1C`, the GI50 with HCC-2998 colon was 1.75 µM; with MALME-3M melanoma it was 1.61 µM; in the test on OVCAR-4 ovarian, 2.04 µM; in the test on 786-0 renal, 1.55 µM; in the test with HL-60(TB) leukemia, 3.16 µM; with HCT-15 colon, 1.62 µM. Further, the GI50 in the test with NCI-H226 lung is 1.76 µM; in the test with U251 CNS, 1.96 µM; with RPMI-8226 leukemia it was 1.83 µM; with HOP-62 NSCLC, 1.89 µM. Also, the TGI in the test with HCC-2998 colon was determined as 3.34 µM; in the test with MALME-3M melanoma, 3.59 µM; with OVCAR-4 ovarian it was 19 µM; with 786-0 renal it was 3.14 µM; with HL-60(TB) leukemia it was 7.17 µM; in the test on HCT-15 colon, 3.92 µM. Besides, the TGI in the test with NCI-H226 lung is 4.46 µM; in the test on U251 CNS it was 4.3 µM; in the test on RPMI-8226 leukemia, 5.65 µM; with HOP-62 NSCLC, 5.06 µM.

As to `Cc1cc(Cl)cc2c1NC(=O)C2(O)C(C)C(=O)c1ccc(Cl)cc1` (centres undefined), the TGI with HCC-2998 colon is greater than 100 µM; in the test with MALME-3M melanoma, greater than 100 µM; with OVCAR-4 ovarian, 62.1 µM; in the test with 786-0 renal it was greater than 100 µM; in the test with HL-60(TB) leukemia, 43.5 µM; in the test with HCT-15 colon, greater than 100 µM. The TGI in the test on NCI-H226 lung is greater than 100 µM; in the test with U251 CNS it was greater than 100 µM; in the test with RPMI-8226 leukemia, 98.2 µM; in the test with HOP-62 NSCLC it was greater than 100 µM.

As for `NCCNC(=S)S`, the TGI is greater than 100 µM in the test with HCC-2998 colon; 30 µM in the test with MALME-3M melanoma; greater than 100 µM in the test with OVCAR-4 ovarian; greater than 100 µM in the test on 786-0 renal; greater than 100 µM in the test with HL-60(TB) leukemia; greater than 100 µM in the test with HCT-15 colon. Further, the TGI with NCI-H226 lung is greater than 100 µM; in the test on U251 CNS it was greater than 100 µM; in the test on RPMI-8226 leukemia, 58.8 µM; with HOP-62 NSCLC, greater than 100 µM.

`COc1ccc(-c2ccc(C3CC(c4ccc(Cl)cc4)=NN3)o2)c([N+](=O)[O-])c1` (centres undefined): the GI50 with HCC-2998 colon, with MALME-3M melanoma, in the test with OVCAR-4 ovarian, with 786-0 renal, in the test with HL-60(TB) leukemia and with HCT-15 colon was greater than 100 µM throughout. Also, the GI50 in the test on NCI-H226 lung, with U251 CNS, in the test with RPMI-8226 leukemia and in the test on HOP-62 NSCLC was greater than 100 µM each time. Moreover, the TGI in the test on HCC-2998 colon, in the test on MALME-3M melanoma, with OVCAR-4 ovarian, in the test on 786-0 renal, in the test on HL-60(TB) leukemia and in the test on HCT-15 colon was greater than 100 µM each time. Moreover, the TGI with NCI-H226 lung, in the test on U251 CNS, in the test with RPMI-8226 leukemia and in the test with HOP-62 NSCLC was greater than 100 µM throughout.

Take `Nc1ncnc2c1ncn2C1OC(CO)=CC1O` (centres undefined): the TGI with HCC-2998 colon, in the test on MALME-3M melanoma, in the test with OVCAR-4 ovarian, in the test on 786-0 renal, in the test with HL-60(TB) leukemia and with HCT-15 colon was greater than 37.5 µM in each case. Further, the TGI in the test with NCI-H226 lung, in the test on U251 CNS, with RPMI-8226 leukemia and in the test with HOP-62 NSCLC was greater than 37.5 µM each time.

As for `C[C@@H]1C=C2C(=O)O[C@@H]3CC[C@H](C1)[C@]23O`, the GI50 was 16.9 µM with HCC-2998 colon; 4.18 µM in the test on MALME-3M melanoma; 5.45 µM in the test on OVCAR-4 ovarian; 4.29 µM in the test on 786-0 renal; 3 µM in the test with HCT-15 colon; 7.02 µM in the test on NCI-H226 lung. Moreover, the GI50 in the test on U251 CNS was 13.9 µM; in the test on RPMI-8226 leukemia, 2.93 µM; in the test with HOP-62 NSCLC, 17.8 µM. For the same compound, the TGI came to 32.9 µM with HCC-2998 colon; 23.3 µM in the test on MALME-3M melanoma; 45.3 µM in the test with OVCAR-4 ovarian; 17.7 µM in the test on 786-0 renal; 5.71 µM with HL-60(TB) leukemia; 18.1 µM in the test with HCT-15 colon. In addition, the TGI is 40 µM in the test with NCI-H226 lung, 27.5 µM with U251 CNS, 10.7 µM with RPMI-8226 leukemia and 63.1 µM in the test on HOP-62 NSCLC.

`CO[C@@H]1[C@H](OC(=O)NC(=O)CCl)CC[C@]2(CO2)[C@H]1[C@@]1(C)O[C@@H]1CC=C(C)C`: the TGI in the test on HCC-2998 colon is 10.8 µM; with MALME-3M melanoma it was 18.5 µM and 18.7 µM; in the test on OVCAR-4 ovarian it was 39.1 µM and 176 µM; in the test on 786-0 renal, 30 µM and 47.7 µM; in the test on HL-60(TB) leukemia, 14.8 µM; in the test with HCT-15 colon it was 56.1 µM and 35.7 µM. Besides, the TGI is 50.4 µM and 50.3 µM with NCI-H226 lung; 20.8 µM and 13.3 µM with U251 CNS; 32.9 µM and 51.4 µM in the test on RPMI-8226 leukemia; 41.1 µM and 44.9 µM with HOP-62 NSCLC. The GI50 in the test with MALME-3M melanoma was 4.16 µM; with OVCAR-4 ovarian, 25.9 µM; with HCT-15 colon it was 5.15 µM; in the test with NCI-H226 lung it was 23.7 µM; with U251 CNS it was 4.98 µM and 0.575 µM; in the test with RPMI-8226 leukemia, 5.73 µM and 6.14 µM. Moreover, the GI50 in the test with HOP-62 NSCLC is 9.11 µM and 0.958 µM.

Take `O=C1CCC2(CC1)SCCCS2`: the TGI in the test with HCC-2998 colon, with MALME-3M melanoma, in the test with OVCAR-4 ovarian, in the test with 786-0 renal, in the test on HL-60(TB) leukemia and with HCT-15 colon was greater than 100 µM each time. The TGI with NCI-H226 lung, in the test with U251 CNS, with RPMI-8226 leukemia and in the test on HOP-62 NSCLC was greater than 100 µM in each case.

Regarding `CN(C)CCCc1c[nH]c2ccccc12`, the TGI in the test with HCC-2998 colon, with MALME-3M melanoma, with OVCAR-4 ovarian, in the test on 786-0 renal, with HL-60(TB) leukemia and in the test with HCT-15 colon was greater than 100 µM each time. Moreover, the TGI in the test with NCI-H226 lung, in the test with U251 CNS, in the test with RPMI-8226 leukemia and with HOP-62 NSCLC was greater than 100 µM throughout.

With `CCCCCCCC/C=C\CCCCCCCC(=O)NCCN(CCN)C(=O)CCCCCCC/C=C\CCCCCCCC`, the TGI with HCC-2998 colon, with MALME-3M melanoma, with OVCAR-4 ovarian, in the test with 786-0 renal, with HL-60(TB) leukemia and in the test on HCT-15 colon was greater than 100 µM each time. Further, the TGI with NCI-H226 lung, in the test on U251 CNS, with RPMI-8226 leukemia and with HOP-62 NSCLC was greater than 100 µM each time.

Consider `CC(C)OP(=O)(OC(C)C)C(=Nc1ccccc1)NNc1ccc([N+](=O)[O-])cc1`, for which the TGI was greater than 100 µM with HCC-2998 colon; 50 µM in the test with MALME-3M melanoma; greater than 100 µM in the test with OVCAR-4 ovarian; 83.3 µM in the test with 786-0 renal; 46.2 µM with HL-60(TB) leukemia; greater than 100 µM in the test on HCT-15 colon. For the same compound, the TGI with NCI-H226 lung is 84.9 µM; in the test with U251 CNS, 52.5 µM; in the test on RPMI-8226 leukemia, 70.4 µM; in the test with HOP-62 NSCLC it was greater than 100 µM.

For the compound `Nc1c(-c2ccc(Cl)cc2Cl)[n+]([O-])c2ccccc2[n+]1[O-]`, the TGI with HCC-2998 colon, with MALME-3M melanoma, in the test with OVCAR-4 ovarian, in the test on 786-0 renal, in the test with HL-60(TB) leukemia and in the test on HCT-15 colon was greater than 100 µM throughout. Also, the TGI in the test on NCI-H226 lung, with U251 CNS, in the test with RPMI-8226 leukemia and with HOP-62 NSCLC was greater than 100 µM throughout.

As to `C[C@H]1[C@H](C)CC[C@]2(C(=O)O)CC[C@]3(C)C(=CC[C@@H]4[C@@]5(C)C/C(=C/c6ccco6)C(=O)C(C)(C)[C@@H]5CC[C@]43C)[C@H]12`, the GI50 with HCC-2998 colon was 3.84 µM; with MALME-3M melanoma it was 8.01 µM; in the test on OVCAR-4 ovarian, 11.8 µM; with 786-0 renal, 4.09 µM; in the test with HL-60(TB) leukemia, 2.44 µM; with HCT-15 colon it was 2.95 µM. Further, the GI50 is 4.36 µM with NCI-H226 lung, 4.27 µM in the test with U251 CNS, 2.83 µM in the test on RPMI-8226 leukemia and 3.78 µM with HOP-62 NSCLC. For the same compound, the TGI was 15.3 µM in the test with HCC-2998 colon; 22.2 µM in the test with MALME-3M melanoma; 33.8 µM in the test with OVCAR-4 ovarian; 19.1 µM in the test with 786-0 renal; 7.04 µM in the test on HL-60(TB) leukemia; 12.1 µM with HCT-15 colon. Also, the TGI with NCI-H226 lung worked out at 23.2 µM; in the test on U251 CNS, 17 µM; in the test with RPMI-8226 leukemia, 15.7 µM; in the test with HOP-62 NSCLC, 16.9 µM.
